Data on two molecules can be found in patent US20250099622A1, “COMPOSITIONS AND METHODS FOR EXPRESSING THERAPEUTICS” (priority 2022, published 2025).

Data set [1] concerns NIH3T3 cells (cGMP secreted). As to the kind of experiment: EC50 for CNP-Fc constructs, cGMP ELISA of NIH3T3 supernatant. The note with it: NIH3T3, 30 minutes, 1.8 mM IBMX, cGMP secreted by the cells; FIG. 25B. The data set is classed as cell-based. The method, then: EC50 for CNP-Fc described herein were measured by ELISA. 2.5E+05 NIH3T3 cells/well were plated. […] After 30 minutes, supernatant was collected for cGMP determined via ELISA. FIG. 25A illustrates a standard curve of cGMP.

For data set [2] the following is noted: background statement; cited from earlier work.
The target of another data set is T1, Human NPR-B (Homo sapiens, UniProt P20594).
T1 construct: purchased R&D system
T1 sequence (P20594 23-458 limits assumed): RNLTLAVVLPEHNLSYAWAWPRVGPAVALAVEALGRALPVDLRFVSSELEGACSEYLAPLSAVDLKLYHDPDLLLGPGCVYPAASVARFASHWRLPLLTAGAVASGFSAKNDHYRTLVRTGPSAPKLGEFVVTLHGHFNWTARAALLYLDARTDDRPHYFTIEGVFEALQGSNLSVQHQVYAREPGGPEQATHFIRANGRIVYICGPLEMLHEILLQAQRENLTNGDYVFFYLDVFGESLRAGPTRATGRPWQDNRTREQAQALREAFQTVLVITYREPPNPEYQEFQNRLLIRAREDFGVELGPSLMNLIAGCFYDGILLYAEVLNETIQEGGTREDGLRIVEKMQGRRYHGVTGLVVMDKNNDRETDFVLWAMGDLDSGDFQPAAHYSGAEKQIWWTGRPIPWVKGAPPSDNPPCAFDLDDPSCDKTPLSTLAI
In words: Biacore SPR kinetic affinity binding to immobilized NPR-B. The procedure: The biological function of these purified protein was assayed for their stimulation of production of cGMP, using NPR-B receptor positive cell line, NIH/3T3 and NPR-B negative cell line HEK293 cells. The determination of cGMP was assay by ELISA using commercial CNP as standard curves. […] Surface preparation. NBR-B was immobilized at different levels in three flow cells via standard amine coupling, leaving Fc 1 unmodified to serve as a reference. All surface plasmon resonance (SPR) analysis was performed on a BIAcore 3000 system using series CM5 sensor chips. Data processing and analysis were performed using BIAevaluation software. All sensorgrams were double referenced by subtracting the response on a reference flow cell and a blank sample. Human NPR-B (R&D system) was covalently attached to a CM5 chip via amine coupling. A surface density of 6600 RU was used for measurements with natriuretic peptides Sequential injections of CNP (0.5-8 nM) were performed at a flow rate of […] (300 s for each), followed by a dissociation time of 900 s. […] Kinetic parameters were calculated assuming a simple 1:1 (Langmuir) binding. […] All SPR analysis was performed on a BIAcore 3000 system using series CM5 sensor chips. Data processing and analysis were performed using BIAevaluation software. All sensorgrams were double referenced by subtracting the response on a reference flow cell and a blank sample. Human NPR-B (R&D system) was covalently attached to a CM5 chip via amine coupling. A surface density of 3100 RU was used for measurements with natriuretic peptides Sequential injections of AMI263 (FC4-CNP) (0.125-2 nM) were performed at a flow rate of […] (300 s for each), followed by a dissociation time of 900 s. […] Kinetic parameters were calculated assuming a simple 1:1 (Langmuir) binding. […] All SPR analysis was performed on a BIAcore 3000 system using series CM5 sensor chips. Data processing and analysis were performed using BIAevaluation software. All sensorgrams were double referenced by subtracting the response on a reference flow cell and a blank sample. Human NPR-B (R&D system) was covalently attached to a CM5 chip via amine coupling. […] Kinetic parameters were calculated assuming a simple 1:1 (Langmuir) binding. […] All SPR analysis was performed on a BIAcore 3000 system using series CM5 sensor chips. Data processing and analysis were performed using BIAevaluation software. All sensorgrams were double referenced by subtracting the response on a reference flow cell and a blank sample. Human NPR-B (R&D system) was covalently attached to a CM5 chip via amine coupling. A surface density of 3100 RU was used for measurements with natriuretic peptides Sequential injections of AMI263 (FC4-CNP) (0.5-300 nM) were performed at a flow rate of […] (300 s for each), followed by a dissociation time of 900 s. […] Kinetic parameters were calculated assuming a simple 1:1 (Langmuir) binding. […] All SPR analysis was performed on a BIAcore 3000 system using series CM5 sensor chips. Data processing and analysis were performed using BIAevaluation software. All sensorgrams were double referenced by subtracting the response on a reference flow cell and a blank sample. Human NPR-B (R&D system) was covalently attached to a CM5 chip via amine coupling.
(In SPR one partner is held on a chip, and binding of the other changes the refractive index at the surface.)

Data set [3] deals with T2, NPR-B on NIH/3T3 cells (NPR-B receptor positive cell line) (UniProt Q6VVW5 17-1047, limits assumed).
T2 sequence (looked up): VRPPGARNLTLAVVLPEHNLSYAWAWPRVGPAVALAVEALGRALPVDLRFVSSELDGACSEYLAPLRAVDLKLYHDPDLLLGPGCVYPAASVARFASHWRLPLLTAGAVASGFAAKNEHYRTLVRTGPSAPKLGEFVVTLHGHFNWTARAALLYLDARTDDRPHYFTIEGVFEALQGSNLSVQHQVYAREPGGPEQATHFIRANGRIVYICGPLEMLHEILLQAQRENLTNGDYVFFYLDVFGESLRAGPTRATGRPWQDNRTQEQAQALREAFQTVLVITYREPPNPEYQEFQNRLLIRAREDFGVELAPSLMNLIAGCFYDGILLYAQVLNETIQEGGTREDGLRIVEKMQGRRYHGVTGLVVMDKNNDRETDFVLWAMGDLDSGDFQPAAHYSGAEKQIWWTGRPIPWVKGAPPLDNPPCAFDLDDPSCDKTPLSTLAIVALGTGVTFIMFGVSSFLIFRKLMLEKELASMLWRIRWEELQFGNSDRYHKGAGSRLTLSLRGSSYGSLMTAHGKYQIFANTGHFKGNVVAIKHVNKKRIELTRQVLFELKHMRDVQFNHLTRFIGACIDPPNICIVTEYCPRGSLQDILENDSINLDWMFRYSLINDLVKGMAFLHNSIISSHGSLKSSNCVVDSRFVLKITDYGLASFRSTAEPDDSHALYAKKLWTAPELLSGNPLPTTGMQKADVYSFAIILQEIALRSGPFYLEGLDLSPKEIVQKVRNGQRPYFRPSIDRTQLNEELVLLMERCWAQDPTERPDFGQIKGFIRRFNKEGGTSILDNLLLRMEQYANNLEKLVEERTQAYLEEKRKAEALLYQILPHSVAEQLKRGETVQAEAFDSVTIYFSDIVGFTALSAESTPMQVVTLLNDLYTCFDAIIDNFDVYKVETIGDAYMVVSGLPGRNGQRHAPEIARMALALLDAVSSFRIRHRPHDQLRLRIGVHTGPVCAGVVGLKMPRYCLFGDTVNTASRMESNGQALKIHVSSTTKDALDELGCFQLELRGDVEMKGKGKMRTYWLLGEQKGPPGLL
In words: cell-based or functional assay.

The target in data set [4] is T3, Human NPR-B (R&D system) (human, UniProt P20594 23-458, limits assumed).
T3 construct: Bought protein immobilised on the Biacore chip; also called NBR-B; natriuretic peptide receptor B
T3 sequence (looked up): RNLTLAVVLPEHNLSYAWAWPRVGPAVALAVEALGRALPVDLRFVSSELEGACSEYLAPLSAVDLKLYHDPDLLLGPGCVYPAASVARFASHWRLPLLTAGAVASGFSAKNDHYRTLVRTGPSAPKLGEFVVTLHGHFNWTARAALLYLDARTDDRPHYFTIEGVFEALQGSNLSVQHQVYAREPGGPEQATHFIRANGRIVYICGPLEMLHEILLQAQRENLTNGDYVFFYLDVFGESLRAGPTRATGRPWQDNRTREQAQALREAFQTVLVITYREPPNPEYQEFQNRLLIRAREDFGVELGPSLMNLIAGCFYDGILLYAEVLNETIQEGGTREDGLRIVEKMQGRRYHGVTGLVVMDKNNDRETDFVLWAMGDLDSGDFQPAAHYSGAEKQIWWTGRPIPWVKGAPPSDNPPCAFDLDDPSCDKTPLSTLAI
As to the kind of experiment: SPR (Biacore 3000), human NPR-B amine-coupled to CM5 chip, single-cycle kinetics, 1:1 Langmuir fit. The procedure:
Kinetic parameters were calculated assuming a simple 1:1 (Langmuir) binding. […] All SPR analysis was performed on a BIAcore 3000 system using series CM5 sensor chips. Data processing and analysis were performed using BIAevaluation software. All sensorgrams were double referenced by subtracting the response on a reference flow cell and a blank sample. Human NPR-B (R&D system) was covalently attached to a CM5 chip via amine coupling. […] Kinetic parameters were calculated assuming a simple 1:1 (Langmuir) binding. […] All SPR analysis was performed on a BIAcore 3000 system using series CM5 sensor chips. Data processing and analysis were performed using BIAevaluation software. All sensorgrams were double referenced by subtracting the response on a reference flow cell and a blank sample. Human NPR-B (R&D system) was covalently attached to a CM5 chip via amine coupling. […] Kinetic parameters were calculated assuming a simple 1:1 (Langmuir) binding. […] All SPR analysis was performed on a BIAcore 3000 system using series CM5 sensor chips. Data processing and analysis were performed using BIAevaluation software. All sensorgrams were double referenced by subtracting the response on a reference flow cell and a blank sample. Human NPR-B (R&D system) was covalently attached to a CM5 chip via amine coupling.

Data set [5] deals with T2, NPR-B on NIH/3T3 cells (NPR-B receptor …). In words: cell-based or functional assay. This is another data set of the same source.
Data set [6] deals with T3, Human NPR-B (R&D system). As to the kind of experiment: SPR (Biacore 3000), FIG. 7C, single-cycle kinetics, NPR-B at 6600 RU on CM5, CNP 0.5-8 nM; differs from Table 32. The method, then: Kinetic parameters were calculated assuming a simple 1:1 (Langmuir) binding. […] All SPR analysis was performed on a BIAcore 3000 system using series CM5 sensor chips. Data processing and analysis were performed using BIAevaluation software. All sensorgrams were double referenced by subtracting the response on a reference flow cell and a blank sample. Human NPR-B (R&D system) was covalently attached to a CM5 chip via amine coupling. […] Kinetic parameters were calculated assuming a simple 1:1 (Langmuir) binding. […] All SPR analysis was performed on a BIAcore 3000 system using series CM5 sensor chips. Data processing and analysis were performed using BIAevaluation software. All sensorgrams were double referenced by subtracting the response on a reference flow cell and a blank sample. Human NPR-B (R&D system) was covalently attached to a CM5 chip via amine coupling. […] Kinetic parameters were calculated assuming a simple 1:1 (Langmuir) binding. […] All SPR analysis was performed on a BIAcore 3000 system using series CM5 sensor chips.

For the molecule `CC[C@H](C)[C@@H]1NC(=O)[C@H](CCCNC(=N)N)NC(=O)[C@H](CC(=O)O)NC(=O)[C@H](CC(C)C)NC(=O)[C@H](CCCCN)NC(=O)[C@H](CC(C)C)NC(=O)CNC(=O)[C@H](Cc2ccccc2)NC(=O)[C@@H](NC(=O)CNC(=O)[C@H](CCCCN)NC(=O)[C@H](CO)NC(=O)[C@H](CC(C)C)NC(=O)CN)CSSC[C@@H](C(=O)O)NC(=O)CNC(=O)[C@H](CC(C)C)NC(=O)CNC(=O)[C@H](CO)NC(=O)[C@H](CCSC)NC(=O)[C@H](CO)NC(=O)CNC1=O` [CNP-22, reference compound], the “EC50 values (rank order)” value in data set [1] is “CNP-22 ≡Fc4-CNP36>Aflibercept-Fc4-CNP36>Fc1-CNP36>>Fc4-CNP22”. In addition, the half-life result in data set [2] is “only a few minutes”. At Human NPR-B ((FIG. 7C-7I)), the ka is 1.31e7 and the kd is 4.74E-4. On Human NPR-B (Table 32 summary of affinity), this molecule showed a ka of 1.37E+07 and a kd of 4.74E−04.
For the molecule GLSKGCFGLKLDRIGSMSGLGC (also called C-type natriuretic peptide) [CNP-22], the “EC50 (cGMP production, table 'EC50 NIH3T3 cells', row CNP-22)” value in data set [3] was determined as 11.8 nM. Further, the Kd (usually a measure of binding affinity in units of concentration) with Human NPR-B (R&D system) [4] was 0.0346 nM. In addition, in data set [5], the “EC50 (cGMP production, drawn table, row CNP-22)” value was found to be 11.8 nM and the “EC50 (read off the curve), cGMP production” value was roughly 10 nM. Further, in the data set with Human NPR-B (R&D system) [6], the affinity, expressed as Kd, was 0.0363 nM and the kon (usually the second-order rate constant of association) was 1.31e+07 M⁻¹ s⁻¹.
